Test [1] deals with T1, Full length Human FAK (Flag-His-TEV-FAK1) (Homo sapiens, UniProt Q05397).
T1 construct: Full length Human FAK was expressed using baculovirus in Sf9 cells; made in house; host or cells: baculovirus in Sf9 cells
Nature of the test: Biochemical assay for FAK activity, Assay 2: LANCE Ultra ULight peptide phosphorylation, 665 nm/615 nm ratio. The note with it: Flag-His-TEV-FAK1, 10 μM ATP, 30 min pre-incubation; for IC50: read-out: Assay 2 FAK H 31284A TRF PXC50 (converted). The protocol:
Flag-His-TEV-FAK1 was prepared in-house. Full length Human FAK was expressed using baculovirus in Sf9 cells with N-terminal FLAG-6×His tags followed by a TEV cleavage site (FLAG-6×His-TEV-huFAK). […] To measure inhibitors of FAK, compounds were first prepared as a 100× stock in 100% DMSO. […] After incubating for 120 minutes at room temperature, the reaction is quenched by adding 5 uL of 20 mM EDTA and 5nMEu-Anti-pTyr antibody in 1× LANCE detection buffer.

For the next test, the target named is T2, GST-tagged FAK (Homo sapiens, UniProt Q05397).
T2 construct: purchased Invitrogen PV3832
Nature of the test: Biochemical assay for FAK activity, Assay 1: phosphorylation of peptide substrate with radio-labeled ATP. As to conditions: 5 μM ATP, 30 min pre-incubation; for IC50: read-out: Assay 1 FAK TRF PXC50 (converted). The protocol:
GST-tagged (glutathione S-transferase-tagged) FAK was purchased from Invitrogen (PV3832) (www.invitrogen.com). […] To measure inhibitors of FAK, compounds were first prepared as a 10× stock in 10% DMSO. […] A 6-nM GST-FAK solution was prepared in 1.1× reaction buffer containing 44 mM HEPES, pH=7.2, 11 mM MgCl2, 2.2 mM MnCl2, 1.1 mM DTT and 0.011% Tween-20. Then, 20 μL of the 6 nM GST-FAK solution were pre-incubated with the compounds for 30 min at room temperature. […] The reaction was allowed to proceed for 90 min before being quenched with 40 μL of 1% H3PO4. A portion of the reaction mixture (60 μL) was transferred to a phospho-cellulose filter plate (Millipore; www.millipore.com, MAPHNOB50) and incubated for 20 minutes. The plate was filtrated, washed three times using 150 μL of 0.5% H3PO4 and dried at 50° C. for 30 min. After the addition of 60 μL Microscint-20 to the plate, radioactivity was measured using a TopCount (PerkinElmer; www.PerkinElmer.com).

T1 sequence (Q05397 whole entry): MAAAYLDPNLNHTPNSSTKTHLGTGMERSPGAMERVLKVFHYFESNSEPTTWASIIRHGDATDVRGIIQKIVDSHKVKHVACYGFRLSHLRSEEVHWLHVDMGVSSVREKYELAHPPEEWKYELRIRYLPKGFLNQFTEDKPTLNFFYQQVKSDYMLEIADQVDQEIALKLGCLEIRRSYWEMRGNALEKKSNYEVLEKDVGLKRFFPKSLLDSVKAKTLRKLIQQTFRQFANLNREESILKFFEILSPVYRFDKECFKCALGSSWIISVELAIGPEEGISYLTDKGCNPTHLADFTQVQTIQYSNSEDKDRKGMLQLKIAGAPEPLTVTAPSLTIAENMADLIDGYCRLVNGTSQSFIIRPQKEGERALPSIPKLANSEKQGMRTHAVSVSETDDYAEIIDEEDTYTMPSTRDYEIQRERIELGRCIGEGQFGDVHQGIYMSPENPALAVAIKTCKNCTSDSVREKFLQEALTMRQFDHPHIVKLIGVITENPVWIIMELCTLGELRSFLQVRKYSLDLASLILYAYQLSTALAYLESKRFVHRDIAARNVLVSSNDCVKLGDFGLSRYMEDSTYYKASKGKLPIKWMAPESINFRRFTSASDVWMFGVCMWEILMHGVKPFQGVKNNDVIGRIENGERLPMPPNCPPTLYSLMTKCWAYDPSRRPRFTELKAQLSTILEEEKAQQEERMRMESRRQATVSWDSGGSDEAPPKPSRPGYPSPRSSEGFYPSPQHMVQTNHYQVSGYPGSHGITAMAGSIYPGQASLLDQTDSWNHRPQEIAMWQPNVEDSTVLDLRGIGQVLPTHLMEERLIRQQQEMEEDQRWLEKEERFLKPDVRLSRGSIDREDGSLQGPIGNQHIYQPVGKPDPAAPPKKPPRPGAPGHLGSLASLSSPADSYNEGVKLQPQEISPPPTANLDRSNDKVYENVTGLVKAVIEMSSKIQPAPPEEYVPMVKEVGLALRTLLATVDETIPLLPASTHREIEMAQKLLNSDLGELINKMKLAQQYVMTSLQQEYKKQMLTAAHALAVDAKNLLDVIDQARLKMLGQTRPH
T2 sequence (Q05397 whole entry): as above

As for `CCOC(=O)c1cc(Nc2cc(Nc3ccccc3C(=O)NC)c(Cl)cn2)n(CC)n1` [Example 17, Ethyl 5-{[5-chloro-4-({2-[(methylamino)carbonyl]phenyl}amino)-2-pyridinyl]amino}-1-ethyl-1H-pyrazole-3-carboxylate], the IC50 was 39.8 nM in test [1] and 1.26 nM on GST-tagged FAK.
In the same order, the values of `CNC(=O)c1ccccc1Nc1cc(Nc2cc(-c3ccccc3)nn2C)ncc1Cl` [Example 1, 2-[5-Chloro-2-(2-methyl-53-ylamino)-pyridin-4-ylamino]-N-methyl-benzamide] are 15.8 nM and 2 nM.
Consider “2-({5-Chloro-2-[(1-ethyl-1H-pyrazol-5-yl)amino]-4-pyridinyl}amino)-N-ethylbenzamide [Example 44]”, for which the “Assay 2 FAK H 31284A TRF PXC50” value in test [1] came to 7.2. The “Assay 1 FAK TRF PXC50” value on GST-tagged FAK was 8.2.
In the case of `CCn1nc(C(=O)NC)cc1Nc1cc(Nc2ccccc2C(=O)NC)c(Cl)cn1` [Example 20, 5-{[5-Chloro-4-({2-[(methylamino)carbonyl]phenyl}amino)-2-pyridinyl]amino}-1-ethyl-N-methyl-1H-pyrazole-3-carboxamide], the IC50 in test [1] is 39.8 nM; on GST-tagged FAK, 10 nM.
The like results for `CNC(=O)c1ccccc1Nc1cc(Nc2cnn(C)c2C)ncc1Cl` [Example 59, 2-({5-Chloro-2-[(1,5-dimethyl-1H-pyrazol-4-yl)amino]-4-pyridinyl}amino)-N-methylbenzamide] were, in that order, 5.01 nM and 0.631 nM.
With “2-({5-Chloro-2-[(1,3-dimethyl-1H-pyrazol-4-yl)amino]-4-pyridinyl}amino)-N-methylbenzamide [Example 27]”, the “Assay 2 FAK H 31284A TRF PXC50” value in test [1] is given as 8.1. Also, at GST-tagged FAK, the “Assay 1 FAK TRF PXC50” value turned out to be 8.7.
On to `CCn1nc(C(=O)NOC)cc1Nc1cc(Nc2ccccc2C(=O)NC)c(Cl)cn1` [Example 19, 5-{[5-Chloro-4-({2-[(methylamino)carbonyl]phenyl}amino)-2-pyridinyl]amino}-1-ethyl-N-(methyloxy)-1H-pyrazole-3-carboxamide], for which the IC50 was 63.1 nM in test [1] and 5.01 nM at GST-tagged FAK.
The like results for `CNC(=O)c1ccccc1Nc1cc(Nc2cc(C)nn2CC(F)(F)F)ncc1Cl` [Example 21, 2-[(5-Chloro-2-{[3-methyl-1-(2,2,2-trifluoroethyl)-1H-pyrazol-5-yl]amino}-4-pyridinyl)amino]-N-methylbenzamide] were, in that order, 63.1 nM and 3.16 nM.
In the case of `CCNC(=O)c1ccccc1Nc1cc(Nc2cc(C)nn2CC)ncc1Cl` [Example 42, 2-({5-Chloro-2-[(1-ethyl-3-methyl-1H-pyrazol-5-yl)amino]-4-pyridinyl}amino)-N-ethylbenzamide], the values for the IC50 (in test [1]; at GST-tagged FAK) were 50.1 nM and 12.6 nM, respectively.
The like results for `CCn1nc(C)cc1Nc1cc(Nc2ccccc2C(=O)NOC)c(Cl)cn1` [Example 39, 2-({5-Chloro-2-[(1-ethyl-3-methyl-1H-pyrazol-5-yl)amino]-4-pyridinyl}amino)-N-(methyloxy)benzamide] were, in that order, 5.01 nM and 0.398 nM.
The like results for `CNC(=O)c1ccccc1Nc1cc(Nc2ccnn2C)ncc1Cl` [Example 2, 2-({5-Chloro-2-[(1-methyl-1H-pyrazol-5-yl)amino]-4-pyridinyl}amino)-N-methylbenzamide] were, in that order, 10 nM and 1.58 nM.
In the same order, the values of `CNC(=O)c1cc(Cl)ccc1Nc1cc(Nc2cc(C)nn2C)ncc1Cl` [Example 11, 5-Chloro-2-({5-chloro-2-[(1,3-dimethyl-1H-pyrazol-5-yl)amino]-4-pyridinyl}amino)-N-methylbenzamide] are 6.31 nM and 2 nM.
Regarding `Cc1cc(Nc2cc(Nc3ccccc3C(=O)NOCCN(C)C)c(Cl)cn2)n(C)n1` [Example 38, 2-({5-Chloro-2-[(1,3-dimethyl-1H-pyrazol-5-yl)amino]-4-pyridinyl}amino)-N-{[2-(dimethylamino)ethyl]oxy}benzamide], the IC50 in test [1] is 1000 nM; at GST-tagged FAK it was 251 nM.
The like results for `CNC(=O)c1ccccc1Nc1cc(Nc2cc(C)nn2C(C)C)ncc1Cl` [Example 4, 2-[(5-Chloro-2-{[3-methyl-1-(1-methylethyl)-1H-pyrazol-5-yl]amino}-4-pyridinyl)amino]-N-methylbenzamide] were, in that order, 6.31 nM and 1 nM.
Turning to `CCn1nccc1Nc1cc(Nc2ccccc2C(=O)NOC)c(Cl)cn1` [Example 40, 2-({5-Chloro-2-[(1-ethyl-1H-pyrazol-5-yl)amino]-4-pyridinyl}amino)-N-(methyloxy)benzamide], the IC50 was 2.51 nM in test [1] and 1.26 nM on GST-tagged FAK.
In the same order, the values of `CCn1nc(C)cc1Nc1cc(Nc2ccccc2C(=O)NC)c(C(F)(F)F)cn1` [Example 32, 2-{[2-[(1-Ethyl-3-methyl-1H-pyrazol-5-yl)amino]-5-(trifluoromethyl)-4-pyridinyl]amino}-N-methylbenzamide] are 1 nM and 0.398 nM.
In the same order, the values of `CCn1nc(CO)cc1Nc1cc(Nc2ccccc2C(=O)NC)c(Cl)cn1` [Example 15, 2-[(5-Chloro-2-{[1-ethyl-3-(hydroxymethyl)-1H-pyrazol-5-yl]amino}-4-pyridinyl)amino]-N-methylbenzamide] are 20 nM and 2.51 nM.
The like results for `CNC(=O)c1cc(F)c(F)cc1Nc1cc(Nc2cc(C)nn2C)ncc1Cl` [Example 9, 2-({5-Chloro-2-[(1,3-dimethyl-1H-pyrazol-5-yl)amino]-4-pyridinyl}amino)-4,5-difluoro-N-methylbenzamide] were, in that order, 6.31 nM and 1 nM.
Take `CCn1nccc1Nc1cc(Nc2ccc(N3CCN(CCO)CC3)cc2C(=O)NC)c(Cl)cn1` [Example 67, 2-({5-Chloro-2-[(1-ethyl-1H-pyrazol-5-yl)amino]-4-pyridinyl}amino)-5-[4-(2-hydroxyethyl)-1-piperazinyl]-N-methylbenzamide]: the IC50 in test [1] is 5.01 nM; on GST-tagged FAK, 63.1 nM.
With `CNC(=O)c1cccc(F)c1Nc1cc(Nc2cc(C)nn2C)ncc1Cl` [Example 8, 2-({5-Chloro-2-[(1,3-dimethyl-1H-pyrazol-5-yl)amino]-4-pyridinyl}amino)-3-fluoro-N-methylbenzamide], the IC50 in test [1] is 5.01 nM; on GST-tagged FAK it was 0.631 nM.
The like results for `CNC(=O)c1ccccc1Nc1cc(Nc2cc(C)nn2CCN(C)C)ncc1Cl` [Example 23, 2-{[5-Chloro-2-({1-[2-(dimethylamino)ethyl]-3-methyl-1H-pyrazol-5-yl}amino)-4-pyridinyl]amino}-N-methylbenzamide] were, in that order, 200 nM and 79.4 nM.
In the same order, the values of `CNC(=O)c1ccccc1Nc1cc(Nc2cc(C)nn2C(C)C)ncc1C(F)(F)F` [Example 30, N-Methyl-2-{[2-[(3-methyl-1-(1-methylethyl)-1H-pyrazol-5-yl]amino}-5-(trifluoromethyl)-4-pyridinyl]amino}benzamide] are 1.58 nM and 0.398 nM.
As for `CNC(=O)c1cc(N2CCN(CCO)CC2)ccc1Nc1cc(Cl)ncc1Cl` [Example 66, 2-[(2,5-Dichloro-4-pyridinyl)amino]-5-[4-(2-hydroxyethyl)-1-piperazinyl]-N-methylbenzamide], the figures for the IC50 (in test [1]; at GST-tagged FAK) were 31.6 nM and 2 nM, respectively.
In the same order, the values of `CCn1nccc1Nc1cc(Nc2ccccc2C(=O)NC)c(Cl)cn1` [Example 3, 2-({5-Chloro-2-[(1-ethyl-1H-pyrazol-5-yl)amino]-4-pyridinyl}amino)-N-methylbenzamide] are 5.01 nM and 0.631 nM.
The like results for `CCNC(=O)c1ccccc1Nc1cc(Nc2cc(C)nn2C)ncc1Cl` [Example 43, 2-({5-Chloro-2-[(1,3-dimethyl-1H-pyrazol-5-yl)amino]-4-pyridinyl}amino)-N-ethylbenzamide] were, in that order, 25.1 nM and 5.01 nM.
Regarding `CNC(=O)c1ccccc1Nc1cc(Nc2cc(C3CC3)nn2C)ncc1Cl` [Example 6, 2-({5-Chloro-2-[(3-cyclopropyl-1-methyl-1H-pyrazol-5-yl)amino]-4-pyridinyl}amino)-N-methylbenzamide], the values for the IC50 (in test [1]; on GST-tagged FAK) were 5.01 nM and 1.26 nM, respectively.
On to `CCn1nccc1Nc1cc(Nc2ccccc2C(=O)NC)c(C(F)(F)F)cn1` [Example 29, 2-{[2-[(1-Ethyl-1H-pyrazol-5-yl)amino]-5-(trifluoromethyl)-4-pyridinyl]amino}-N-methylbenzamide], for which the IC50 was 2 nM in test [1] and 0.501 nM on GST-tagged FAK.
